Measurements taken from paper PMC3809513, “Imidazopyridazines as potent inhibitors of Plasmodium falciparum calcium-dependent protein kinase 1 (PfCDPK1): Preparation and evaluation of pyrazole linked analogues^” (Bioorganic & Medicinal Chemistry Letters, 2013).
Like-named read-outs stand apart in the source and are kept apart here.

Tests used:
P. falciparum [1] = test system: P. falciparum; design: method as in PMID 23570789; conditions: reference compound 2; read-out: Pf EC50; cited from earlier work
[2] = design: method as in PMID 23570789; conditions: % remaining after 30 min incubation with human liver microsomes; cited from earlier work
[3] = design: method as in PMID 23570789; conditions: % remaining after 30 min incubation with mouse liver microsomes; cited from earlier work
PfCDPK1 = PfCDPK1 (Plasmodium falciparum, UniProt P62344); experiment: PfCDPK1 enzyme inhibition; type: biochemical; conditions: for LLE: LLE = pIC50 − m Log D
PfCDPK1, sequence (P62344 whole entry): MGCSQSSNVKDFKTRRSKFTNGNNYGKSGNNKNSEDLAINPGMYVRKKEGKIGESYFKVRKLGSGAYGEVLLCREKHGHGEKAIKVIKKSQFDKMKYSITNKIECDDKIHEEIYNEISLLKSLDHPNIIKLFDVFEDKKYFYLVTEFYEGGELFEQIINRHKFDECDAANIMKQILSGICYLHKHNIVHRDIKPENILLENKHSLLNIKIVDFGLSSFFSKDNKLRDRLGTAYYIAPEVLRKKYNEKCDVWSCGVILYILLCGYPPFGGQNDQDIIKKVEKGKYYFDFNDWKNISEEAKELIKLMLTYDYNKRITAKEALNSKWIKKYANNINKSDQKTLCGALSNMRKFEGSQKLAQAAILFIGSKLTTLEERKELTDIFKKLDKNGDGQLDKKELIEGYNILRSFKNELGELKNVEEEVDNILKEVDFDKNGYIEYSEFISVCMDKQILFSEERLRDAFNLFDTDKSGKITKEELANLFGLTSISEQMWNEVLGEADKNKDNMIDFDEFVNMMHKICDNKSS

P. falciparum [4] = experiment: P. falciparum parasite growth assay (FACS, hydroethidine); type: cell-based, Plasmodium falciparum; conditions: in vitro parasite growth, compounds added 24 h post-invasion, cells recovered 48 h later; for EC50: Plasmodium falciparum, read-out: Pf EC50
Procedure: [12] P. falciparum EC50 values were measured using an in vitro model of malaria parasite growth. Compounds were diluted into 2% DMSO and added to parasites 24 h post-invasion in a 96-well plate and incubated under static conditions. Cells were recovered 48 h later and processed for FACS analysis using hydroethidine to stain parasite DNA. Data was acquired using a Guava easyCyte Plus flow cytometer with ExpressPro software. Growth inhibition was calculated using the following formula: % growth inhibition = (1 − [parasitaemia of culture/parasitaemia of control culture]) × 100.

[5] = LogD shake flask (octanol/PBS); type: physicochemical; conditions: measured log D
Procedure: LogD measurements were carried out using the shake flask method. Compound was diluted from 10 mM DMSO stock solution into an eppendorf containing equal amounts of octanol and phosphate buffered saline (PBS) to give a final concentration of 100 μM. The tubes were shaken for 12 hours, centrifuged at 10000 rpm for 10 minutes and samples taken from the octanol and PBS layers. The samples from both layers were analysed in triplicate by LC-MS/MS (Agilent Technologies G6410 series, triple quadrupole with MM-ESI ion source) using optimised multiple reaction monitoring (MRM) scans and a standard column gradient on an Acquity UPLC BEH C8 1.7 μm column, running acetonitrile and water with 0.05% Acetic Acid as the mobile phase. The ratios of areas of the peaks were used to calculate the LogD in accordance with the equation: LogD = Log10(Area-TL/Area BL)

[6] = Microsomal turnover, human liver microsomes; type: in vitro ADME; conditions: % remaining after 30 min, 1 μM compound
Procedure: Microsomal turnover data was obtained using either human liver microsomes (HLM) or mouse liver microsomes (MLM) obtained from BD Biosciences. The compounds are pre-incubated at 37 °C for 5 minutes with the microsomes and the reaction was initiated by adding an equal volume of NADPH generating solution, also obtained from BD Biosciences. The final compound concentration in the incubation is 1 μM, and the microsomal protein concentration is 0.5 mg/ml for HLM and 0.2 mg/ml for MLM. A sample is taken at t=0 and quenched with 2x volume of ice-cold methanol containing an internal standard reference compound (carbamazepine). […] The samples were centrifuged at 10000 rpm for 10 minutes and the supernatant taken for analysis in triplicate by LC-MS/MS (Agilent Technologies G6410 series, triple quadrupole with MM-ESI ion source) using optimised multiple reaction monitoring (MRM) scans and a standard column gradient on an Acquity UPLC BEH C8 1.7μm column, running acetonitrile and water with 0.05% acetic acid as the mobile phase. […] Verapamil is used as the standard compound for this assay.

[7] = Microsomal turnover, mouse liver microsomes; type: in vitro ADME; conditions: % remaining after 30 min, 1 μM compound
Procedure: Microsomal turnover data was obtained using either human liver microsomes (HLM) or mouse liver microsomes (MLM) obtained from BD Biosciences. The compounds are pre-incubated at 37 °C for 5 minutes with the microsomes and the reaction was initiated by adding an equal volume of NADPH generating solution, also obtained from BD Biosciences. The final compound concentration in the incubation is 1 μM, and the microsomal protein concentration is 0.5 mg/ml for HLM and 0.2 mg/ml for MLM. A sample is taken at t=0 and quenched with 2x volume of ice-cold methanol containing an internal standard reference compound (carbamazepine). The reaction is agitated at 37 °C for 40 minutes (HLM) and 30 minutes (MLM) when a further sample was taken and quenched in an identical fashion. The samples were centrifuged at 10000 rpm for 10 minutes and the supernatant taken for analysis in triplicate by LC-MS/MS (Agilent Technologies G6410 series, triple quadrupole with MM-ESI ion source) using optimised multiple reaction monitoring (MRM) scans and a standard column gradient on an Acquity UPLC BEH C8 1.7μm column, running acetonitrile and water with 0.05% acetic acid as the mobile phase. The % turnover is obtained by calculating the percentage difference of the peak areas, normalised to the internal standard, at t=0 and t=40 (for human) or t=30 (for mouse). Verapamil is used as the standard compound for this assay.

[8] = PAMPA passive permeability; type: in vitro ADME; conditions: 5 hours at room temperature
Procedure: PAMPA assays were carried out using a 96 well BD Biosciences pre-coated PAMPA plate with 0.4 μm polyvinylidene fluoride filter plate, precoated with structured layers of phospholipids. […] The compound solution was placed in the lower ‘Donor’ well of the plate and the upper ‘Acceptor’ well of the plate was filled with PBS:DMSO 98:2 buffer containing no compound following which the plates was assembled then incubated for 5 hours at room temperature. After incubation the Donor and Acceptor wells were sampled into flat UV bottomed plates and a six fold 1:2 dilution series created for each compound starting at the appropriate top concentration for each compound. The UV absorbance for these solutions was read across 230-400 nm at 1 nm intervals using a TECAN Safire II plate reader and a suitable UV wavelength chosen around the UV maximum of each compound. This was used to calculate the concentration in the Donor and Acceptor wells for each compound. The compound permeability Papp (nm s^-1) and % mass retention was then calculated for each compound in accordance with the following equations:
Ceq = [CD(t)* VD+ CA(t)*VA]/(VD+VA)
% mass retention = 1 – [CD(t)*VD + CA(t)*VA]/(C0*VD)]
A = Filter Area, VD = Donor Well Volume, VA = Acceptor Well Volume, t = incubation time (secs), CA(t) = Acceptor concentration at time t, CD(t) = Donor concentration at time t, C0 = Initial Donor concentration
No result was reported for compounds where % mass retention exceeded 50%.

[9] = molecular target: 73-member human kinase panel; experiment: Kinase selectivity profiling against human kinase panel; type: biochemical; conditions: 73-member human kinase panel at 1 μM concentration; green <50%, orange 50–80%, red >80% inhibition in Figure 2
Excerpt: They also display key ADME properties which serve to complement analogues such as 2, where a 6-membered aryl or heteroaryl ring linker had been used (Table 5). As expected, the pyrazole linker has contributed to lowering log D in these new analogues, and perhaps more importantly has promoted a significant increase in ligand lipophilic efficiency (LLE)[22] as compared to compounds such as 2. This parameter is well-known to offer a useful guide to potency and lipophilicity during the progression of chemical series from hits towards leads. In addition, we observed promising kinase selectivity profiles for key examples on screening against a human kinase panel at 1 μM concentration,[23] as shown in Figure 2. The aryl pyrazoles described here thus represent a useful additional possibility for progressing towards alternative early lead compounds with good development characteristics.
[23] Kinase selectivity profiling was carried out by the National Centre for Protein Kinase Profiling at the MRC Protein Phosphorylation Unit (University of Dundee, UK).

Row | SMILES | EC50 (P. falciparum [1]) [nM] | HLM % rem [2] [%] | MLM % rem [3] [%] | IC50 (PfCDPK1) [nM] | LLE (PfCDPK1) | LE (ligand efficiency) (PfCDPK1; from PfCDPK1 potency) | EC50 (P. falciparum [4]) [nM] | Pf EC50 (P. falciparum [4]) | logD at 12 h, 100 µM [5] | HLM % rem [6] [%] | MLM % rem [7] [%] | Papp at 5 h, up to 200 µM [8] [×10⁻⁶ cm/s] | Kinases inhibited [9]
1 | CC(C)CCNc1ccc(-c2cnc3ccc(NC4CCN(C)CC4)nn23)cn1 [Compound 2] | 400 | 63 | 85 |  |  |  |  |  |  |  |  |  | 
2 | Cc1nn(-c2ccccc2)cc1-c1cnc2ccc(NC3CCN(C)CC3)nn12 [Compound 11] |  |  |  | 3610 |  |  |  |  |  |  |  |  | 
3 | c1ccc(-n2cc(-c3cnc4ccc(NC5CCNCC5)nn34)cn2)cc1 [Compound 12] |  |  |  | 43 | 4.5 | 0.37 | 985 | sub-micromolar | 1.8 | 81 | 74 | 2.3 | PRK2, PKD1, MSK1, MNK1, SmMLCK, CHK1, CHK2, Aurora B, NUAK1, PIM1, GCK, MINK1, MLK1, MLK3, IRAK4, SRC, LCK, YES1, EPH-A2, FGF-R1, HER4, VEG-FR
4 | CN1CCC(Nc2ccc3ncc(-c4cnn(-c5ccccc5F)c4)n3n2)CC1 [Compound 16] |  |  |  | 76 |  |  | 567 |  | 3.4 |  |  |  | 
5 | CN1CCC(Nc2ccc3ncc(-c4cnn(-c5ncc(F)cn5)c4)n3n2)CC1 [Compound 25] |  |  |  | 486 |  |  |  |  | 2 |  |  |  | 
6 | CN1CCC(Nc2ccc3ncc(-c4cnn(-c5cnccn5)c4)n3n2)CC1 [Compound 26] |  |  |  | 31 |  |  | 366 |  | 2.2 | 66 | 51 | 0.05 | 
7 | Clc1ccc2ncc(Br)n2n1 [Compound 27] |  |  |  |  |  |  |  |  |  |  |  |  | RSK1, PRK2, CHK1, MELK, NUAK 1, PIM1, MST2, GCK, MINK1, MLK1, MLK3, IRAK4, SRC, LCK, CSK, YES1, BTK, EPH-A2, EPH-B3, HER4, VEG-FR
8 | N[C@H]1CC[C@H](Nc2ccc3ncc(-c4cnn(-c5ccc(F)cc5)c4)n3n2)CC1 [Compound 29] |  |  |  | 56 | 5.3 |  | 262 |  | 1.9 | 80 | 84 | 4.3 | 
9 | Fc1ccc(-n2cc(-c3cnc4ccc(N[C@H]5CC[C@H](N6CCCC6)CC5)nn34)cn2)cc1 [Compound 30] |  |  |  | 129 |  |  | 373 |  | 2.8 | 42 | 66 | 10.4 | 
10 | CN1CCC(Oc2ccc3ncc(-c4cnn(-c5ccc(F)cc5)c4)n3n2)CC1 [Compound 31] |  |  |  | 184 |  |  |  |  | 2.6 | 61 | 38 | 21.4 | 
11 | Fc1ccc(-n2cc(-c3cnn4ccc(C5CCCNC5)nc34)cn2)cc1 (centres unmarked) [Compound 34] |  |  |  | 176 |  |  | 3830 |  | 1.4 | 80 | 56 | 21.7 | 
12 | CN1CCCC(c2ccn3ncc(-c4cnn(-c5ccc(F)cc5)c4)c3n2)C1 (centres unmarked) [Compound 35] |  |  |  | 378 |  |  | 3540 |  | 2.5 | 55 | 33 |  | 
13 | CN1CCC(Nc2ccc3ncc(-c4cnn(-c5ccc(C#N)cc5)c4)n3n2)CC1 [Compound 36] |  |  |  | 854 |  |  |  |  | 1.9 | 79 | 59 |  | RSK1, ROCK2, PRK2, MNK1, MNK2, SmMLCK, PHK, CHK1, MARK3, BRSK2, MELK, NUAK1, CK1, CK2, DRYK1A, PIM1, PAK4, MST2, GCK, MINK1, MLK1, MLK3, IRAK4, SRC, YES1, BTK, EPH-A2, HER4, VEG-FR
14 | CN1CCC(Nc2ccc3ncc(-c4cnn(-c5cccc(C#N)c5)c4)n3n2)CC1 [Compound 37] |  |  |  | 189 |  |  | 255 |  | 2.7 | 70 | 59 |  | 
